# Results published in publication PMC11859916, “Design, Synthesis, and Biological Evaluation of a Novel [^18F]AlF-H3RESCA-FAPI Radiotracer Targeting Fibroblast Activation Protein” (Pharmaceuticals, 2025).
# Columns and labels:
# [1] = target: T1, recombinant human FAP protein (Homo sapiens, UniProt Q12884); experiment: Biacore SPR binding affinity measurement; conditions: read-out: KD (equilibrium dissociation constant)
# T1 construct: purchased Sino Biological Inc., Beijing, China 10464-H07H
# T1 sequence (Q12884 1-760): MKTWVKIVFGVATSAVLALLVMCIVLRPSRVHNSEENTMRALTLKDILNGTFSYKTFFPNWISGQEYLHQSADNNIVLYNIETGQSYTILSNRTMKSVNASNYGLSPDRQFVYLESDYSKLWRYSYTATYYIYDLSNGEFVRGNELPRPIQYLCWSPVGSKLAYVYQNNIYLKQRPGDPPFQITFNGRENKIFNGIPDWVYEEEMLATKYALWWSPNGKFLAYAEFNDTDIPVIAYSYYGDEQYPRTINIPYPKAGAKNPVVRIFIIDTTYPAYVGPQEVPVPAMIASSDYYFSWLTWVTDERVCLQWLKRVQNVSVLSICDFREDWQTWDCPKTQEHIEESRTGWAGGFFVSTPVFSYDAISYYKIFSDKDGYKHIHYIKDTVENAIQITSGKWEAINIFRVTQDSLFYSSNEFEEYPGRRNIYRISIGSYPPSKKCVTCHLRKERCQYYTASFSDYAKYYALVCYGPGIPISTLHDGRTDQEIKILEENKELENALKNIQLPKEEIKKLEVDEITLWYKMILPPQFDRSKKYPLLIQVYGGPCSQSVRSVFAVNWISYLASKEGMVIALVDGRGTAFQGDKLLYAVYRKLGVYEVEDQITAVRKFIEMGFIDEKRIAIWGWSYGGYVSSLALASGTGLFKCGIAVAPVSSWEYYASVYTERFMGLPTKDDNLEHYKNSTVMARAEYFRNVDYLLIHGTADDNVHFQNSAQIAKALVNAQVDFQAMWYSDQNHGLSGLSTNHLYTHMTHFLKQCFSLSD
# Experimental: In order to determine the binding kinetics between ligands and human FAP protein (10464-H07H, Sino Biological Inc., Beijing, China), the Biacore SPR interaction study was conducted. The binding affinity is expressed by the equilibrium dissociation constant (KD) (M), which is calculated from the values of the measured binding rate constant (ka) (M^−1 s^−1) and dissociation rate (kd) (s^−1).
# [2] = Octanol-water partition coefficient (n-octanol/PBS); format: physicochemical; conditions: n-octanol/PBS 1:1, ambient temperature
# Experimental: Radiotracers [^68Ga]Ga-DOTA-FAPI-04 and [^18F]AlF-H3RESCA-FAPI (0.37 MBq, about 50 µL) were added to tubes containing n-octanol/PBS mixture (1 mL, 1:1). The mixture was vortexed vigorously for 5 min at ambient temperature and then centrifuged for five min at 8000 rpm. In each phase, three samples (each 50 µL) were removed and measured in γ-counter (PerkinElmer). The partition coefficient was expressed as an equation as follows:(1) LogD7.4=LogCPM(n−octanol)/CPM(PBS)
Kd [1] [nM],logD7.4 (octanol-water partition coefficient) [2],Compound
< 0.0101,–,"N#C[C@@H]1CC(F)(F)CN1C(=O)CNC(=O)c1ccnc2ccc(OCCCN3CCN(C(=O)Cc4ccc(CN(CC(=O)O)[C@@H]5CCCC[C@H]5N(CC(=O)O)CC(=O)O)cc4)CC3)cc12 [H3RESCA-FAPI, 2,2′-(((1R,2R)-2-((carboxymethyl)(4-(2-(4-(3-((4-((2-((S)-2-cyano-4,4-difluoropyrrolidin-1-yl)-2-oxoethyl)carbamoyl)quinolin-6-yl)oxy)propyl)piperazin-1-yl)-2-oxoethyl)benzyl)amino)cyclohexyl)azanediyl)diacetic acid]"
–,−3.53 ± 0.05,N#C[C@@H]1CC(F)(F)CN1C(=O)CNC(=O)c1ccnc2ccc(OCCCN3CCN(C(=O)CN4CCN(CC(=O)[O-])CCN(CC(=O)O)CCN(CC(=O)[O-])CC4)CC3)cc12.[68Ga+3] [[^68Ga]Ga-DOTA-FAPI-04]
